Assay results: patent US20020006406A1, “METHOD FOR THE TREATMENT OF STAPHYLOCOCCAL DISEASE” (priority 1997, published 2002)
Like-named read-outs stand apart in the source and are kept apart here. Marks after values point to notes of the source that are not given here.

Legend:
MRSA 27619 = assay: Experimental aortic valve endocarditis in rabbits, MRSA 27619; type: in vivo, S. aureus; details: for Mean log10CFU/gram of vegetation / Number of sterile vegetations/total animals treated: three days
Experimental: Aortic valve endocarditis was established in New Zealand white rabbits weighing approximately 3 kg. Rabbits were anesthetized and the right carotid artery surgically exposed and cannulated with a polyethylene catheter which was advanced into the left ventricle of the heart. After at least 24 h, the rabbits were infected intravenously with 10^6-10^7 cells of a methicillin-resistant S. aureus strain (MRSA 27619). Twenty-four hours later, the animals were randomly assigned to different treatment groups; untreated control (9 rabbits); positive control, vancomycin 30 mg/kg twice daily (15); lysostaphin 5 mg/kg three times daily (11); lysostaphin 5 mg/kg once daily (10); lysostaphin 5 mg/kg once daily+vancomycin 30 mg/kg twice daily (11).
All treatments were intravenous and were carried out for three days. The state of health of the rabbits was assessed at intervals. The rabbits were sacrificed 18 h after the last treatment. Aortic vegetations were removed and weighed and processed to determine the number of viable bacteria, expressed as log,10CFU/gram. The limit of detection is 10^2 CFU/gram (log10CFU/gram=2.0). The mean titers of bacteria per gram were compared by one-way analysis of variance. The Student-Newman-Keuls test was used to adjust for multiple comparisons.
Comparison of the rates of sterilization were made using Fisher's exact test. Statistical significance was defined as a P value of ≦0.05.
Kidney abscesses were also assessed for the presence of staphylococci.

[1] = tested on: Giorgio strain of S. aureus; details: mice, cited from earlier work
[2] = tested on: methicillin-resistant clinical isolates of S. aureus and 27619VR; assay: Time-kill experiment, four S. aureus strains (FIG. 2); type: cell-based; details: 1 μg/ml; three methicillin-resistant clinical isolates and 27619VR; 2×10^6 to 9×10^7 CFU/ml
Experimental: In another experiment (FIG. 2), three different methicillin-resistant clinical isolates of S. aureus, and a fourth strain, 27619VR, a laboratory-derived ‘VISA’ strain (i.e., with intermediate resistance to vancomycin) derived from a methicillin-resistant clinical isolate, were inoculated into cation-adjusted Mueller-Hinton broth (Becton Dickinson) and grown at 37° C. overnight. They were then diluted into fresh broth and incubated at 37° C. with gentle shaking until they were estimated to have reached the logarithmic stage of growth. […] Lysostaphin was added to each culture at the concentration of 1 μg/ml. At intervals, samples were withdrawn, serially diluted in 0.9% NaCl, and plated by spreading on Mueller-Hinton agar (Becton Dickinson). The agar plates were incubated for 48 hours at 37° C. and the colonies were counted manually.

S. aureus = assay: MIC by broth microdilution with 0.1% BSA in the diluent; type: cell-based
Experimental: Lysostaphin sticks to plastic materials and can be lost from solution; this can affect its apparent activity. Therefore, some MIC determinations were also performed with additions of 0.1% bovine serum album (BSA) to the diluent. Otherwise, the method was identical to that cited above. […] Since this observation is related to the affinity of lysostaphin for plastic materials, it is to be expected that, in general, staphylococcal strains are more susceptible to lysostaphin than was observed previously.

Question: For “lysostaphin: recombinant lysostaphin enzyme from fermentation of B. sphaericus; majority component lacks the two N-terminal amino acids of the published sequence”, which “Mean log10CFU/gram of vegetation” value (MRSA 27619; 5 mg/kg once daily iv) is on record?
Answer: 7.08 log10CFU/gram

Question: And the “Number of sterile vegetations/total animals treated” value (MRSA 27619; 5 mg/kg once daily iv)?
Answer: 2/10

Question: What about the “Mean log10CFU/gram of vegetation” value (MRSA 27619; 5 mg/kg three times daily iv) of the same substance?
Answer: 2.26 log10CFU/gram

Question: What about the “Number of sterile vegetations/total animals treated” value (MRSA 27619; 5 mg/kg three times daily iv) of the same substance?
Answer: 10/11^c

Question: What about the “bacterial load in kidney abscesses” value (MRSA 27619; thrice-daily regimen (5 mg/kg), controls just under 10^8 CFU/gram) of the same substance?
Answer: ~10^2 CFU/gram of tissue

Question: And the “state of health of the rabbits” value (MRSA 27619; thrice-daily regimen, early in the treatment cycle)?
Answer: all in good health

Question: What about the “numbers of bacteria in the kidneys” value ([1]; intravenously within 6 hours after infection, dosages of 1.5 mg/kg or higher) of the same substance?
Answer: significant reductions

Question: And the “numbers of bacteria in the kidneys” value ([1]; treatment withheld for 24 hours or longer, dosages of 125 or 250 mg/kg)?
Answer: only modest reductions

Question: And the “killing of strains in time-kill experiment” value [2]?
Answer: rapidly killed

Question: And the “MIC With BSA” value (S. aureus; strain 401 (clinical isolate))?
Answer: 0.015 µg/mL

Question: What about the “MIC With BSA” value (S. aureus; strain 404 (clinical isolate, methicillin-resistant)) of the same substance?
Answer: 0.008 µg/mL

Question: What about the “MIC With BSA” value (S. aureus; strain 414) of the same substance?
Answer: 0.03 µg/mL

Question: And the “MIC With BSA” value (S. aureus; strain 417)?
Answer: 0.03 µg/mL

Question: And the “MIC With BSA” value (S. aureus; strain 25756 (clinical isolate, methicillin-resistant))?
Answer: 0.008 µg/mL

Question: What about the “MIC With BSA” value (S. aureus; strain 27287 (clinical isolate, methicillin-resistant)) of the same substance?
Answer: 0.03 µg/mL

Question: What about the “MIC With BSA” value (S. aureus; strain 27295 (clinical isolate, methicillin-resistant)) of the same substance?
Answer: ≦0.004 μg/ml

Question: What about the “MIC With BSA” value (S. aureus; strain 27619 (clinical isolate, methicillin-resistant)) of the same substance?
Answer: 0.008 µg/mL
